Values belong to the molecule of their own block, whether it stands above or below them. Square brackets hold non-standard residues; d marks the D form. Ends that are not written are not given here. Peptide text beside a SMILES is read from it. hArg = N=C(N)NCCCC[C@H](N)C(=O)O; Aib = CC(C)(N)C(=O)O
What was measured:
human PTHR1 (R0) = target: T1, human PTHR1 (R0) (Homo sapiens, UniProt Q03431); test: Competition binding, R0 conformation of human PTHR1 (COS-7 membranes, 125I-PTH(1-34) tracer, GTPγS)
T1 construct: expressed in transfected cells; host or cells: COS-7 cells (membranes)
T1 sequence (Q03431 27-593): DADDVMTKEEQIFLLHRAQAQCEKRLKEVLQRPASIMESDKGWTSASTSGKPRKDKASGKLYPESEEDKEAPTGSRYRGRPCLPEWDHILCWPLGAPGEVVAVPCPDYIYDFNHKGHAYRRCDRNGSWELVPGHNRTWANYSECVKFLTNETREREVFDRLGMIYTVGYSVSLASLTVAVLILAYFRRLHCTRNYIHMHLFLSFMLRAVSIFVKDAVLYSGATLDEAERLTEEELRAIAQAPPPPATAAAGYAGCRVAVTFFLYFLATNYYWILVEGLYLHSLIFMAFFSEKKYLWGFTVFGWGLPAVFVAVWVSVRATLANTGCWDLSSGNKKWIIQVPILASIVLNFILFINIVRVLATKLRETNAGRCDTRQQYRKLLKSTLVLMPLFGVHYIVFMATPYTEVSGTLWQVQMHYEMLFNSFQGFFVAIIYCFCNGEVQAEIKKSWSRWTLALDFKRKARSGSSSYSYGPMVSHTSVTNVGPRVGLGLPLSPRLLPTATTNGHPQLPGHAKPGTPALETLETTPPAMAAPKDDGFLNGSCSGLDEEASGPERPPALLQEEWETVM
Experimental: (§1) Briefly, the R^0 form of the receptor can be favored by addition of the non-hydrolyzable nucleotide analog GTPγS. The RG form can be favored, for example, by co-transfection of cells with a negative dominant Gαs subunit. […] Data are means of four experiments, each performed in duplicate. Curves were fit to the data using Graph-Pad Prism 4.0.
(§2) Here, competition binding assays for the R^0 and RG PTHR1 conformation were performed in membranes prepared from transfected COS-7 cells, as described by Dean et al., Mol Endocrinol 22:156-66, 2008. Data are means of three experiments, each performed in duplicate. Curves were fit to the data using Graph-Pad Prism 4.0.

rat PTHR1 (RG) = target: T2, rat PTHR1 (RG) (Rattus norvegicus, UniProt P25961); test: Competition binding, RG conformation of rat PTHR1; details: RG conformation; mean of 4 experiments; read-out: Binding rat PTHR1 IC50 (Log M) RG (converted)
T2 construct: expressed in transfected cells
T2 sequence (P25961 27-591): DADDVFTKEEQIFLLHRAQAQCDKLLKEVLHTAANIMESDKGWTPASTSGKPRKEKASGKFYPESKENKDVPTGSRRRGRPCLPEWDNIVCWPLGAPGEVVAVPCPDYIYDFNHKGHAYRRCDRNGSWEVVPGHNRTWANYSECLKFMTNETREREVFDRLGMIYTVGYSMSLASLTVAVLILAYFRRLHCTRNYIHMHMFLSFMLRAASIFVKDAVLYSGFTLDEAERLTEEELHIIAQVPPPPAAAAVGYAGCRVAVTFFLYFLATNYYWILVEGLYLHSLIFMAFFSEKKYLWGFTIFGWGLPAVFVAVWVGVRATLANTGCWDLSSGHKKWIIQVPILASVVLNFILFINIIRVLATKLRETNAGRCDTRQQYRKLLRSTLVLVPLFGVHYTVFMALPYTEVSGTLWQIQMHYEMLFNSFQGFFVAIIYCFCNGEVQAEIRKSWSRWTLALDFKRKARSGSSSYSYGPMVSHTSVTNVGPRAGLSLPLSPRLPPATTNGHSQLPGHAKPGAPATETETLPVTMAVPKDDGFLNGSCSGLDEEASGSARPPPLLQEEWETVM
Excerpt: as §1

MC3T3-E1 cells [1] = test: cAMP RIA in intact MC3T3-E1 cells; type: cell-based, mouse; details: 30 min, room temperature, IBMX
Experimental: cAMP stimulating activity of these polypeptides was also assessed, using two different methods: a radioimmunoassay (RIA; FIG. 2) and a cAMP responsive element fused to a luciferase gene (FIG. 3). Briefly, the RIA cAMP assays were performed in intact MC3T3-E1 cells, a mouse pre-osteoblastic cell line, in 96-well plates, as described by Okazaki et al. (Proc Natl Acad Sci USA 105:16525-30, 2008). […] The cAMP contents of the HCl lysates were then determined by RIA. Data are means of six experiments, each performed in duplicate. Curves were fit to the data using Graph-Pad Prism 4.0.

MC3T3-E1 cells [2] = test: cAMP response following ligand wash-out in MC3T3-E1 cells; type: cell-based, mouse; details: 100 nM ligand 5 min, then wash-out; FIGS. 7A, 7B
Experimental: Cells were treated at room temperature with vehicle or the indicated ligand (100 nM) for five minutes; for each ligand duplicate wells were used to obtain the initial (maximum cAMP values); in these wells, cells were co-incubated with ligand and IBMX. After five minutes of initial treatment, the buffer was removed, and, for the initial wells, the reactions were terminated by addition of 50 mM HCl. In the other wells, the cells were rinsed three times with buffer, and incubated in buffer for varying times, as indicated on the abscissa; after which the buffer was replaced by a buffer containing IBMX, and the cells were incubated for another five minutes. After that, the buffer was removed and the reactions were terminated by addition of 50 mM HCl. The cAMP contents of the HCl lysates were then determined by RIA.

[3] = Blood Ca++ responses in mice; type: in vivo, mice (C57 BL/6); details: 5 nmol/kg s.c., 4, 6, 8 and 24 hours
Experimental: Blood Ca^++ responses in mice were also assayed. Mice (C57 BL/6) were injected subcutaneously with either vehicle or the indicated ligand to give a final dose of 5 nmol/kg body weight, and blood was withdrawn via the tail at times after injection and assessed for Ca^++ concentration using a Bayer Rapid Lab model 348 blood analyzer. […] A similar experiment using 10 nmol/kg by intravenous injection was also conducted with similar results (FIGS. 8C and 8D).

PD PTH receptor = target: T3, PD PTH receptor (Mus musculus, UniProt P41593, S489A/S491A/S492A/S493A/S495A/S501A/S504A); test: Blood calcium and cAMP in knock-in mice with phosphorylation-deficient (PD) PTH receptor vs wild-type; type: in vivo
T3 construct: endogenous in cells; host or cells: knock-in mice (in vivo)
T3 sequence (P41593 27-591 S489A/S491A/S492A/S493A/S495A/S501A/S504A): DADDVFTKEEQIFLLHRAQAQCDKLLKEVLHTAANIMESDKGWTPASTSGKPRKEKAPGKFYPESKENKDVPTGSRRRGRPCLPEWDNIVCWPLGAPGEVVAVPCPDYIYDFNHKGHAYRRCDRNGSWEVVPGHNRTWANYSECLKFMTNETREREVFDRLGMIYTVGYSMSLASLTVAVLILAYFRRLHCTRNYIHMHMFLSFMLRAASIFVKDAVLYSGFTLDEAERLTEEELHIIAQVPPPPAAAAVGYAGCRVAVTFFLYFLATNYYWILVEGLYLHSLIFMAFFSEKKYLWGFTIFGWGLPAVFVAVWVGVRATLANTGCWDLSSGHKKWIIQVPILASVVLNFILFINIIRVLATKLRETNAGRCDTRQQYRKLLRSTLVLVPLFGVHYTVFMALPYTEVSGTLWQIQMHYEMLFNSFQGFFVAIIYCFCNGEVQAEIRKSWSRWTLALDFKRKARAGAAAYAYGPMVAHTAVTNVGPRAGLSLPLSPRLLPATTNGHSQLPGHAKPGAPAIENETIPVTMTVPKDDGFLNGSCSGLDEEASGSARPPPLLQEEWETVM
Experimental: The activity of SP-PTH-AAK (SEQ ID NO:4) was tested in “knock-in” mice that express a PD PTH receptor in place of the wild-type PTH receptor (Bounoutas et al., Endocrinology 147: 4674, 2006).
Blood cAMP levels were also compared between the two types of mice.

rat PTH receptor [4] = target: T4, rat PTH receptor (rat, UniProt P25961 27-591, limits assumed); test: radioligand displacement, rat PTHR1, R0 conformation
T4 construct: R0 and RG conformations assayed separately by the method of WO 2009/017809 or a similar one; also called rat PTHR1
T4 sequence (looked up): T2 sequence (P25961 27-591)

rat PTH receptor [5] = target: T4, rat PTH receptor; test: radioligand displacement, rat PTHR1, RG conformation
human PTH-1 receptor [6] = target: T5, human PTH-1 receptor (human, UniProt Q03431 27-593); test: radioligand competition, human PTHR1 in COS-7 membranes, R0 conformation
T5 construct: whole, on cells; also called human PTHR1; human PTH receptor
T5 sequence (looked up): T1 sequence (Q03431 27-593)
Experimental: as §2, with “R⁰” for “R^0”

human PTH-1 receptor [7] = target: T5, human PTH-1 receptor; test: radioligand competition, human PTHR1 in COS-7 membranes, RG conformation
Experimental: as §2, with “R⁰” for “R^0”

R0 binding at human PTH receptor as compared to PTH(1-34) (human PTHR1 (R0); FIG. 5A): enhanced R^0 binding | IC50 (human PTHR1 (R0); R0 conformation, mean of 3 experiments, read-out: Binding human PTHR1 IC50 (Log M) R0 (converted)): 1.82 nM | IC50 (rat PTHR1 (RG)): 0.38 nM | EC50 (MC3T3-E1 cells [1]): 0.044 nM | cAMP MC3T3-E1 cells EC50 (Log M) (MC3T3-E1 cells [1]; 6 experiments): −10.4 ± 0.1 Log M
Molecule: CC[C@H](C)[C@H](NC(=O)[C@H](CCC(=O)O)NC(=O)[C@H](C)NC(=O)[C@@H](NC(=O)[C@H](Cc1c[nH]cn1)NC(=O)[C@@H](NC(=O)[C@H](CCC(=O)O)NC(=O)[C@H](C)NC(=O)[C@@H](NC(=O)[C@H](CC(C)C)NC(=O)[C@H](Cc1c[nH]cn1)NC(=O)[C@H](Cc1c[nH]cn1)NC(=O)[C@H](CC(C)C)NC(=O)[C@H](Cc1ccccc1)NC(=O)[C@H](Cc1ccccc1)NC(=O)[C@H](CCCNC(=N)N)NC(=O)[C@H](CCCNC(=N)N)NC(=O)[C@H](CCCNC(=N)N)NC(=O)[C@H](CC(C)C)NC(=O)[C@H](CC(=O)O)NC(=O)[C@H](CCC(N)=O)NC(=O)[C@@H](NC(=O)[C@H](Cc1c[nH]c2ccccc12)NC(=O)[C@H](CCCCN)NC(=O)[C@H](C)NC(=O)[C@H](CCCCNC(=N)N)NC(=O)[C@H](CCC(N)=O)NC(=O)[C@H](Cc1c[nH]cn1)NC(=O)[C@H](CCSC)NC(=O)[C@H](CC(C)C)NC(=O)[C@H](CCC(N)=O)NC(=O)[C@@H](NC(=O)[C@H](CCC(=O)O)NC(=O)C(C)(C)NC(=O)[C@@H](NC(=O)[C@H](C)N)C(C)C)[C@@H](C)CC)[C@@H](C)CC)[C@@H](C)CC)[C@@H](C)CC)[C@@H](C)O)C(N)=O [AIB-SP-PTH, [Ala^1,12,Aib^3,Gln^10,Har^11,Trp^14]PTH(1-14)/PTHrP(15-36)] (H-AV[Aib]EIQLMHQ[hArg]AKWIQDLRRRFFLHHLIAEIHTAEI-NH2; N-terminus assumed)
cAMP MC3T3-E1 cells Emax (pmole/well) (MC3T3-E1 cells [1]): 62.1 ± 13.3 pmole/well | cAMP-stimulating activity after ligand wash-out (MC3T3-E1 cells [2]): maintained cAMP-stimulating activity for longer periods of time than PTH(1-34) | blood calcium levels at later time points vs PTH(1-34) or vehicle [3]: increased

increases in blood calcium levels in PD mice as compared to wild-type mice (PD PTH receptor; FIGS. 17A, 17B): either reduced or eliminated
Molecule: M-PTH(1-28)
blood cAMP levels in PD mice as compared to wild-type mice (PD PTH receptor; FIGS. 18A, 18B): increased in magnitude and prolonged in duration

IC50 (rat PTH receptor [4]): 1.5 nM | IC50 (rat PTH receptor [5]): 0.9 nM | IC50 (human PTH-1 receptor [6]): 0.95 nM | IC50 (human PTH-1 receptor [7]): 0.45 nM
B1: M-PTH(1-34) (peptide)
peptide: AV[Aib]EIQLMHQ[hArg]AKWLNSMRRVEWLRKKLQDVHNF-NH2
modifications: N-terminus assumed
SMILES: CC[C@H](C)[C@H](NC(=O)[C@H](CCC(=O)O)NC(=O)C(C)(C)NC(=O)[C@@H](NC(=O)[C@H](C)N)C(C)C)C(=O)N[C@@H](CCC(N)=O)C(=O)N[C@@H](CC(C)C)C(=O)N[C@@H](CCSC)C(=O)N[C@@H](Cc1c[nH]cn1)C(=O)N[C@@H](CCC(N)=O)C(=O)N[C@@H](CCCCNC(=N)N)C(=O)N[C@@H](C)C(=O)N[C@@H](CCCCN)C(=O)N[C@@H](Cc1c[nH]c2ccccc12)C(=O)N[C@@H](CC(C)C)C(=O)N[C@@H](CC(N)=O)C(=O)N[C@@H](CO)C(=O)N[C@@H](CCSC)C(=O)N[C@@H](CCCNC(=N)N)C(=O)N[C@@H](CCCNC(=N)N)C(=O)N[C@H](C(=O)N[C@@H](CCC(=O)O)C(=O)N[C@@H](Cc1c[nH]c2ccccc12)C(=O)N[C@@H](CC(C)C)C(=O)N[C@@H](CCCNC(=N)N)C(=O)N[C@@H](CCCCN)C(=O)N[C@@H](CCCCN)C(=O)N[C@@H](CC(C)C)C(=O)N[C@@H](CCC(N)=O)C(=O)N[C@@H](CC(=O)O)C(=O)N[C@H](C(=O)N[C@@H](Cc1c[nH]cn1)C(=O)N[C@@H](CC(N)=O)C(=O)N[C@@H](Cc1ccccc1)C(N)=O)C(C)C)C(C)C
notes: M residues: Ala1,12, Aib3, Gln10, homoArg11, Trp14, Arg19; also called M-PTH(1-34).NH2; MGH# 1577
